Assay results as given in patent publication US20220089638A1, “DITHIOCARBAMATE STAPLED PEPTIDES AND METHODS OF MAKING AND USE THEREOF” (UNIVERSITY OF MARYLAND, BALTIMORE, priority 2019, published 2022).
Where a SMILES comes first, the peptide text is derived from it. Bridges are numbered along the chain shown (N, C = ends). Where no end group is shown, it is not given here.

Legend:
[1] = Circular dichroism spectroscopy, percent α-helix; format: physicochemical; conditions: CD spectroscopy
Description: Circular Dichroism (CD) Spectroscopy.

[2] = system: HCT116 p53^+/+; experiment: Cell viability assay (CCK8), HCT116 p53+/+; format: cell-based, human; conditions: concentrations of up to 50 μM
[3] = system: HCT116 p53^−/−; experiment: Cell viability assay (CCK8), HCT116 p53-/-; format: cell-based, human; conditions: concentrations of up to 50 μM
[4] = system: HCT116 p53^+/+ cells; experiment: Cellular uptake by confocal microscopy; format: cell-based, human; conditions: FITC-labeled peptide, 20 μM, 4 h
Experimental: Cellular uptake of ^DTCPMI. […] Cells were then incubated with 20 μM FITC-^DTCPMI Ctrl. or FITC-^DTCPMI for 4 h. Cells were washed with Dulbecco's phosphate buffered saline, fixed with 4% (wt/vol) paraformaldehyde, finally incubated by DAPI to stain the cell nucleus. Imaged using an LSM 510 Zeiss Axiovert 200M (v4.0) confocal microscope. Images were analyzed using an LSM image browser.

[5] = target: T1, cathepsin G (Homo sapiens, UniProt P08311); experiment: Proteolytic stability in the presence of cathepsin G; format: in vitro ADME; conditions: cathepsin G (25 μg/ml) in RPMI 1640; 100 μM peptide, 25 μg/mL cathepsin G, cell culture medium, room temperature
T1 sequence (P08311 21-244): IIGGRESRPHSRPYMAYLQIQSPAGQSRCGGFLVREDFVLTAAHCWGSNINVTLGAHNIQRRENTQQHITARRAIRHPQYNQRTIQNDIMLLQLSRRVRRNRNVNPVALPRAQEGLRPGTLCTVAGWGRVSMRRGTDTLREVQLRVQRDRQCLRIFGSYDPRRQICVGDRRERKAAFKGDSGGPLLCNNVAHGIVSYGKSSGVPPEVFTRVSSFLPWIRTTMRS

[6] = 25° C., PBS buffer, glutathione 10 mM, over 24 h
[7] = target: T2, synthetic 25-109MDM2 (p53-binding domain of MDM2) (UniProt Q00987 25-109); experiment: FP competition: the peptide displaces TAMRA-PMI (10 nM) from MDM2 (50 nM)
T2 construct: range 25-109

[8] = target: T3, synthetic 24-108MDMX (p53-binding domain of MDMX) (UniProt O15151 24-108); experiment: SPR competition in solution: MDMX at 100 nM incubated with the peptide, free MDMX read on a chip with immobilised 15-29p53
T3 sequence (looked up): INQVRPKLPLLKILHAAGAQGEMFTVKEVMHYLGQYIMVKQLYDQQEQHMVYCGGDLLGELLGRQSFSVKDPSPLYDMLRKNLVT

[9] = target: T2, synthetic 25-109MDM2 (p53-binding …); experiment: FP competition: the peptide displaces TAMRA-PMI (10 nM) from MDM2 (50 nM); remark: listed apart in the source
[10] = target: T3, synthetic 24-108MDMX (p53-binding …); experiment: FP competition: the peptide displaces TAMRA-PMI (10 nM) from MDMX (50 nM)
[11] = target: T2, synthetic 25-109MDM2 (p53-binding …); experiment: FP competition: the peptide displaces TAMRA-PMI (10 nM) from MDM2 (50 nM) [left panel]
[12] = target: T3, synthetic 24-108MDMX (p53-binding …); experiment: FP competition: the peptide displaces TAMRA-PMI (10 nM) from MDMX (50 nM) [right panel]
[13] = target: T2, synthetic 25-109MDM2 (p53-binding …); experiment: SPR competition in solution: MDM2 at 25 nM incubated with the peptide, free MDM2 read on a chip with immobilised 15-29p53
[14] = target: T2, synthetic 25-109MDM2 (p53-binding …); experiment: as above; remark: listed apart in the source
[15] = target: T3, synthetic 24-108MDMX (p53-binding …); experiment: SPR competition in solution: MDMX at 100 nM incubated with the peptide, free MDMX read on a chip with immobilised 15-29p53; remark: listed apart in the source

In the case of CC(=O)N[C@H](C(=O)N[C@H]1CSC(=S)NCCCC[C@@H](C(=O)N[C@@H](Cc2c[nH]c3ccccc23)C(=O)N[C@@H](CC(N)=O)C(=O)N[C@@H](CC(C)C)C(=O)N[C@@H](CC(C)C)C(=O)N[C@@H](CO)C(=O)N2CCC[C@H]2C(N)=O)NC(=O)[C@H](CCC(=O)O)NC(=O)[C@H](C)NC(=O)[C@H](Cc2ccccc2)NC1=O)[C@@H](C)O [PMI(2,6)-b], the “α-helix (%)” value ([1]; Table 3) is reported as 3.1% and the “α-helix (%)” value ([1]; Table 7) is reported as 4.81%.

For CC(=O)N[C@H](C(=O)N[C@@H](CO)C(=O)N[C@@H](Cc1ccccc1)C(=O)N[C@@H](CCCCN)C(=O)N[C@@H](CCC(N)=O)C(=O)N[C@@H](Cc1ccc(O)cc1)C(=O)N[C@@H](Cc1c[nH]c2ccccc12)C(=O)N[C@@H](CS)C(=O)N[C@@H](CC(C)C)C(=O)N[C@@H](CC(C)C)C(=O)N[C@@H](CO)C(=O)N[C@@H](CCCNC(=N)N)C(N)=O)[C@@H](C)O [^DTCPMI Ctrl., reference compound], the “α-helix (%)” value ([1]; Table 7) was 16.6%, the “anti-proliferative activity against HCT116 p53+/+” value [2] was “no anti-proliferative activity” and the “anti-proliferative activity against HCT116 p53-/-” value [3] was “no anti-proliferative activity”. The “intracellular localization / cellular uptake (confocal microscopy)” value [4] was “diffused intracellular localization, demonstrating efficient cellular uptake”.

For CC(=O)N[C@H](C(=O)N[C@H]1CCCCNC(=S)SC[C@@H](C(=O)N[C@@H](Cc2c[nH]c3ccccc23)C(=O)N[C@@H](CC(N)=O)C(=O)N[C@@H](CC(C)C)C(=O)N[C@@H](CC(C)C)C(=O)N[C@@H](CO)C(=O)N2CCC[C@H]2C(N)=O)NC(=O)[C@H](CCC(=O)O)NC(=O)[C@H](C)NC(=O)[C@H](Cc2ccccc2)NC1=O)[C@@H](C)O [PMI(2,6)-a], the “α-helix (%)” value ([1]; Table 3) was 5.9% and the “α-helix (%)” value ([1]; Table 7) was 15.3%.

With CC(=O)N[C@H]1CSC(=S)NCCCC[C@@H](C(=O)N[C@@H](Cc2ccc(O)cc2)C(=O)N[C@@H](Cc2c[nH]c3ccccc23)C(=O)N[C@@H](CC(N)=O)C(=O)N[C@@H](CC(C)C)C(=O)N[C@@H](CC(C)C)C(=O)N[C@@H](CO)C(=O)N2CCC[C@H]2C(N)=O)NC(=O)[C@H](C)NC(=O)[C@H](Cc2ccccc2)NC(=O)[C@H](CO)NC1=O [PMI(1,5)-b] the “α-helix (%)” value ([1]; Table 3) was 7.6% and the “α-helix (%)” value ([1]; Table 7) was 8.38%.

For CC(=O)N[C@H]1CCCCNC(=S)SC[C@@H](C(=O)N[C@@H](Cc2ccc(O)cc2)C(=O)N[C@@H](Cc2c[nH]c3ccccc23)C(=O)N[C@@H](CC(N)=O)C(=O)N[C@@H](CC(C)C)C(=O)N[C@@H](CC(C)C)C(=O)N[C@@H](CO)C(=O)N2CCC[C@H]2C(N)=O)NC(=O)[C@H](C)NC(=O)[C@H](Cc2ccccc2)NC(=O)[C@H](CO)NC1=O [PMI(1,5)-a], the “α-helix (%)” value ([1]; Table 3) was 36% and the “α-helix (%)” value ([1]; Table 7) was 6.50%.

For CC(=O)N[C@H](C(=O)N[C@@H](CO)C(=O)N[C@@H](Cc1ccccc1)C(=O)N[C@@H](C)C(=O)N[C@@H](CCC(=O)O)C(=O)N[C@@H](Cc1ccc(O)cc1)C(=O)N[C@@H](Cc1c[nH]c2ccccc12)C(=O)N[C@H]1CSC(=S)NCCCC[C@@H](C(N)=O)NC(=O)[C@H](CO)NC(=O)[C@H](CC(C)C)NC(=O)[C@H](CC(C)C)NC1=O)[C@@H](C)O [PMI(8,12)-b], the “α-helix (%)” value ([1]; Table 3) was 0% and the “α-helix (%)” value ([1]; Table 7) was 0.23%.

For CC(=O)N[C@H](C(=O)N[C@@H](CO)C(=O)N[C@@H](Cc1ccccc1)C(=O)N[C@@H](C)C(=O)N[C@@H](CCC(=O)O)C(=O)N[C@@H](Cc1ccc(O)cc1)C(=O)N[C@@H](Cc1c[nH]c2ccccc12)C(=O)N[C@@H](CC(N)=O)C(=O)N[C@@H](CC(C)C)C(=O)N[C@@H](CC(C)C)C(=O)N[C@@H](CO)C(=O)N1CCC[C@H]1C(N)=O)[C@@H](C)O [PMI-0, reference compound] (Ac-TSFAEYWNLLSP-NH2), the “α-helix (%)” value ([1]; Table 3) was 0% and the “α-helix (%)” value ([1]; Table 7) was 9.77%.

In the case of CC(=O)N[C@H](C(=O)N[C@@H](CO)C(=O)N[C@@H](Cc1ccccc1)C(=O)N[C@H]1CCCCNC(=S)SC[C@@H](C(=O)N[C@@H](CC(C)C)C(=O)N[C@@H](CC(C)C)C(=O)N[C@@H](CO)C(=O)N2CCC[C@H]2C(N)=O)NC(=O)[C@H](Cc2c[nH]c3ccccc23)NC(=O)[C@H](Cc2ccc(O)cc2)NC(=O)[C@H](CCC(=O)O)NC1=O)[C@@H](C)O [PMI(4,8)-a], the “α-helix (%)” value ([1]; Table 3) is reported as 25% and the “α-helix (%)” value ([1]; Table 7) is reported as 39.3%.

With CC(=O)N[C@H](C(=O)N[C@@H](CO)C(=O)N[C@@H](Cc1ccccc1)C(=O)N[C@@H](C)C(=O)N[C@H]1CSC(=S)NCCCC[C@@H](C(=O)N[C@@H](CC(C)C)C(=O)N[C@@H](CO)C(=O)N2CCC[C@H]2C(N)=O)NC(=O)[C@H](CC(N)=O)NC(=O)[C@H](Cc2c[nH]c3ccccc23)NC(=O)[C@H](Cc2ccc(O)cc2)NC1=O)[C@@H](C)O [PMI(5,9)-b] the “α-helix (%)” value ([1]; Table 3) was 0% and the “α-helix (%)” value ([1]; Table 7) was 9.58%.

With CC(=O)N[C@H](C(=O)N[C@@H](CO)C(=O)N[C@@H](Cc1ccccc1)C(=O)N[C@H]1CSC(=S)NCCCC[C@@H](C(=O)N[C@@H](CC(C)C)C(=O)N[C@@H](CC(C)C)C(=O)N[C@@H](CO)C(=O)N2CCC[C@H]2C(N)=O)NC(=O)[C@H](Cc2c[nH]c3ccccc23)NC(=O)[C@H](Cc2ccc(O)cc2)NC(=O)[C@H](CCC(=O)O)NC1=O)[C@@H](C)O [PMI(4,8)-b] the “α-helix (%)” value ([1]; Table 3) was 5.6% and the “α-helix (%)” value ([1]; Table 7) was 9.15%.

With CC(=O)N[C@H](C(=O)N[C@@H](CO)C(=O)N[C@@H](Cc1ccccc1)C(=O)N[C@@H](C)C(=O)N[C@@H](CCC(=O)O)C(=O)N[C@@H](Cc1ccc(O)cc1)C(=O)N[C@@H](Cc1c[nH]c2ccccc12)C(=O)N[C@H]1CCCCNC(=S)SC[C@@H](C(N)=O)NC(=O)[C@H](CO)NC(=O)[C@H](CC(C)C)NC(=O)[C@H](CC(C)C)NC1=O)[C@@H](C)O [PMI(8,12)-a] the “α-helix (%)” value ([1]; Table 3) was 33%, the “α-helix (%)” value ([1]; Table 7) was 43.3% and the half-life at 100 μM [5] was roughly 8 h. The “breakdown of the DTC structure in reduced glutathione” value [6] was “no apparent breakdown of the DTC structure was observed over 24 h”.

For CC(=O)N[C@H](C(=O)N[C@@H](CO)C(=O)N[C@@H](Cc1ccccc1)C(=O)N[C@@H](C)C(=O)N[C@H]1CCCCNC(=S)SC[C@@H](C(=O)N[C@@H](CC(C)C)C(=O)N[C@@H](CO)C(=O)N2CCC[C@H]2C(N)=O)NC(=O)[C@H](CC(N)=O)NC(=O)[C@H](Cc2c[nH]c3ccccc23)NC(=O)[C@H](Cc2ccc(O)cc2)NC1=O)[C@@H](C)O [PMI(5,9)-a], the “α-helix (%)” value ([1]; Table 3) was 0% and the “α-helix (%)” value ([1]; Table 7) was 6.88%.

B1: ^DTCp53 (DTC-stapled 16-27p53, Ser20Cys, staple Cys20-Lys24) (peptide, UniProt P04637 16-27, looked up)
peptide: QETFCDLWKLLP
modifications: bridge 5-9
notes: range 16-27; also called stapled p53 peptide
With B1 the “IC50 (read off the curve)” value [7] was roughly 300 nM and the “IC50 (read off the curve)” value [8] was roughly 100 nM.

B2: PMI(4,8)-a (peptide)
peptide: Ac-TSFKEYWCLLSP-NH2
modifications: bridge 4-8
notes: Co-crystal with MDMX is PDB 5VK1; also called PMI(4, 8)-1
With B2 the “IC50 (read off the curve)” value [9] was roughly 40 nM, the “IC50 (read off the curve)” value [10] was roughly 30 nM and the “IC50 (read off the curve)” value [11] was roughly 40 nM. The “IC50 (read off the curve)” value [12] was roughly 30 nM, the “IC50 (read off the curve)” value [13] was roughly 10 nM and the “IC50 (read off the curve)” value [14] was roughly 10 nM. For the same molecule, the “IC50 (read off the curve)” value [15] was roughly 50 nM.

For Ac-TSFAEYWKLLSC-NH2 (bridge 8-12) [PMI(8,12)-a], the “IC50 (read off the curve)” value [9] was roughly 30 nM, the “IC50 (read off the curve)” value [11] was roughly 30 nM and the “IC50 (read off the curve)” value [13] was roughly 10 nM. For the same molecule, the “IC50 (read off the curve)” value [14] was roughly 10 nM and the “IC50 (read off the curve)” value [15] was 50 to 60 nM.
